Test results taken from US4454128A, “6α-Methoxy-penicillins” (Dr. Karl Thomae GmbH, priority 1981, dated 1984).
Converted amounts (≈) assume the structure as drawn. Where two headings read alike, the source gives them in different places.

Legend:
[1] = test system: Proteus rettgeri BC 7; experiment: In vitro MIC, series dilution test in microtiter system; type: cell-based; settings: Providencia rettgeri, BC7; Prot. rettg. BC 7; 18 to 20 hours at 37° C.; read-out: minimum inhibitory concentration (MIC)
Protocol: (§1) For the tests, the method of the series dilution test in the microtiter system was used. The substances were tested for bacteriostasis in a liquid medium. The bacteriostatic activity was tested at the following concentration: 128; 64; 32; 16; 8; 4; 2; 1; 0.5; 0.25; 0.12; 0.06 μg/ml.
(§2) A nutrient medium having the following composition was used: 10 gm of peptone, 8 gm of meat extract oxoid, 3 gm of sodium chloride, 2 gm of sec. sodium phosphate are made up to […] with distilled water (pH 7.2 to 7.4). The age of the primary cultures was about 20 hours.
(§3) The bacterial suspension was adjusted, using the photometer (according to "Eppendorf") (test tube diameter 14 mm, filter 546 nm) by reference to the turbidity of a barium sulfate comparison suspension which was produced by a barium sulfate suspension formed by the addition of 3.0 ml of 1% barium chloride solution to 97 ml of 1% sulfuric acid. After adjustment, Streptococcus aronson was diluted in the ratio 1:15 and the other test pathogens were diluted in the ratio 1:1500 with a common salt solution.
(§4) 16 mg of the test substance were weighed in 10 ml measuring flasks and solvent was added up to the mark. Further dilutions in the series were made with distilled water or the solvent in question.
(§5) The depressions in the microtiter plates were filled with 0.2 ml of nutrient medium, 0.01 ml of the corresponding diluted substance and a drop of bacterial suspension (0.01 ml), and incubated for 18 to 20 hours at 37° C. A solvent check was carried out continuously at the same time.
(§6) The reading was taken macroscopically, and the respective limiting concentration (=the lower concentration still having bateriostatic activity) was determined.
(§7) The following were used as test organisms:
(§8) Escherichia coli ATCC 11 775, Serratia marcescens ATCC 13 880, Klebsiella pneumoniae ATCC 10 031 and BC 6, Proteus Mirabilis BC 17, Proteus rettgeri BC 7, Enterobacter cloacae ATCC 13 047, E. coli R^+ TEM(β-lactamase carrier) and K. pneumoniae 1088 E (β-lactamase carrier).
(§9) Table 1 which follows lists the minimum inhibitory concentrations (MIC) determined for typical representatives of the compounds according to the invention. These are the sodium salts of compounds of the formula I, where A=p-hydroxyphenyl and R is defined as follows: […]

[2] = test system: Enterobacter cloacae ATCC 13 047; experiment: as above; type: cell-based; settings: Eb. cloac. ATCC 13047, 18 to 20 hours at 37° C., read-out: minimum inhibitory concentration (MIC)
Protocol: as §1, §2, §3, §4, §5, §6, §7, §8, §9

[3] = test system: E. coli R^+ TEM(β-lactamase carrier); experiment: as above; type: cell-based; settings: Escherichia coli, read-out: minimum inhibitory concentration (MIC)
Protocol: as §1, §2, §3, §4, §5, §6, §7, §8, §9

[4] = test system: Proteus Mirabilis BC 17; experiment: as above; type: cell-based; settings: Prot. mir. BC 17, 18 to 20 hours at 37° C., read-out: minimum inhibitory concentration (MIC)
Protocol: as §1, §2, §3, §4, §5, §6, §7, §8, §9

[5] = test system: Serratia marcescens ATCC 13 880; experiment: as above; type: cell-based; settings: Serr. marc. ATCC 13880, 18 to 20 hours at 37° C., read-out: minimum inhibitory concentration (MIC)
Protocol: as §1, §2, §3, §4, §5, §6, §7, §8, §9

[6] = test system: Escherichia coli ATCC 11 775; experiment: as above; type: cell-based; settings: E. coli ATCC 11775, 18 to 20 hours at 37° C., read-out: minimum inhibitory concentration (MIC)
Protocol: as §1, §2, §3, §4, §5, §6, §7, §8, §9

[7] = test system: K. pneumoniae 1088 E (β-lactamase carrier); experiment: as above; type: cell-based; settings: Klebsiella pneumoniae, K. pneum. 1088 E, 18 to 20 hours at 37° C., read-out: minimum inhibitory concentration (MIC)
Protocol: as §1, §2, §3, §4, §5, §6, §7, §8, §9

[8] = test system: Klebsiella pneumoniae ATCC 10 031; experiment: as above; type: cell-based; settings: K. pneum. ATCC 10031, 18 to 20 hours at 37° C., read-out: minimum inhibitory concentration (MIC)
Protocol: as §1, §2, §3, §4, §5, §6, §7, §8, §9

[9] = test system: Klebsiella pneumoniae BC 6; experiment: as above; type: cell-based; settings: BC6, K. pneum. BC 6, 18 to 20 hours at 37° C., read-out: minimum inhibitory concentration (MIC)
Protocol: as §1, §2, §3, §4, §5, §6, §7, §8, §9

[10] = test system: E. coli ATCC 11775; experiment: In vivo test on experimental E. coli infection in mice; set-up: species or system E. coli; female mice of the NMRI strain; settings: Escherichia coli, ATCC11775, sc, 168 h, subcutaneous, one treatment 1 hour post infectionem, observation period 7 days, read-out: ED50 (dose at which 50% of the animals survived)
Protocol: A number of the compounds according to the invention were tested in vivo on experimental infections in mice. E. coli ATCC 11775 were used as the pathogenic bacteria. An intraperitoneal infection was produced with 0.2 ml of a 5% mucin suspension of the bacteria. This corresponds to about 1.4×10^6 E. coli bacteria per mouse. Female mice of the NMRI strain were divided up into groups of 10 animals, two groups were untreated, the other groups were treated subcutaneously with various doses of the penicillin according to the invention, to determine the ED50 (dose at which 50% of the animals survived). One treatment was given (1 hour post infectionem).
In both cases, the observation period was 7 days. The results of these tests with 2 representatives of the penicillins according to the invention, compared with Temocillin, are shown in Table 3 which follows: […]

[11] = test system: 20 Serratia marcescens carrying β-lactamase; experiment: In vitro activity against 20 Serratia marcescens carrying β-lactamase, compared with Temocillin; type: cell-based; settings: Serr. marc. (20)
Protocol: as §1, §2, §3, §4, §5, §6

[12] = inoculum 5 × 10^4, read-out: Geometric Mean (MIC)
[13] = inoculum 5 × 10^4, read-out: MIC Range
[14] = inoculum 5 × 10^6, read-out: Geometric Mean (MIC)

| SMILES | MIC [1] [µg/mL] | MIC [2] [µg/mL] | MIC [3] [µg/mL] | MIC [4] [µg/mL] | MIC [5] [µg/mL] | MIC [6] [µg/mL] | MIC [7] [µg/mL] | MIC [8] [µg/mL] | MIC [9] [µg/mL] | ED50 [10] [mg/kg] | MIC [11, 12] [µg/mL] | MIC [11, 13] [µg/mL] | MIC [11, 14] [µg/mL] | MIC ([11]; inoculum 5 × 10^6, read-out: MIC Range) [µg/mL] |
| --- | --- | --- | --- | --- | --- | --- | --- | --- | --- | --- | --- | --- | --- | --- |
| CO[C@@]1(NC(=O)C(NC(=O)Nc2cnc(NCc3ccc(S(N)(=O)=O)s3)nc2O)c2ccc(O)cc2)C(=O)N2[C@@H](C(=O)O)C(C)(C)S[C@@H]21 (stereo partly drawn) [C] | 2 (≈ 2.77 µM) | 1 (≈ 1.38 µM) | 2 (≈ 2.77 µM) | 0.12 (≈ 0.166 µM) | 2 (≈ 2.77 µM) | 1 (≈ 1.38 µM) | 8 (≈ 11.1 µM) | 1 (≈ 1.38 µM) | 1 (≈ 1.38 µM) | – | – | – | – | – |
| CO[C@@]1(NC(=O)C(NC(=O)Nc2cnc(NCc3ccc(S(N)(=O)=O)cc3)nc2O)c2ccc(O)cc2)C(=O)N2[C@@H](C(=O)O)C(C)(C)S[C@@H]21 (stereo partly drawn) [D] | 4 (≈ 5.58 µM) | 1 (≈ 1.4 µM) | 2 (≈ 2.79 µM) | 0.5 (≈ 0.698 µM) | 2 (≈ 2.79 µM) | 2 (≈ 2.79 µM) | 8 (≈ 11.2 µM) | 1 (≈ 1.4 µM) | 1 (≈ 1.4 µM) | – | – | – | – | – |
| CO[C@@]1(NC(=O)C(C(=O)O)c2ccsc2)C(=O)N2[C@@H](C(=O)O)C(C)(C)S[C@@H]21 (stereo partly drawn) [Compound E, Temocillin, reference compound] | 4 (≈ 9.65 µM) | 4 (≈ 9.65 µM) | 8 (≈ 19.3 µM) | 2 (≈ 4.83 µM) | 8 (≈ 19.3 µM) | 4 (≈ 9.65 µM) | 4 (≈ 9.65 µM) | 4 (≈ 9.65 µM) | 2 (≈ 4.83 µM) | > 20 | 10.2 (≈ 24.6 µM) | 8 to 16 (≈ 19.3 to 38.6 µM) | 24.3 (≈ 58.6 µM) | – |
| CO[C@@]1(NC(=O)C(NC(=O)Nc2cnc(Nc3ccc(S(N)(=O)=O)cc3)nc2O)c2ccc(O)cc2)C(=O)N2[C@@H](C(=O)O)C(C)(C)S[C@@H]21 (stereo partly drawn) [A] | 2 (≈ 2.85 µM) | 1 (≈ 1.42 µM) | 1 (≈ 1.42 µM) | 1 (≈ 1.42 µM) | 1 (≈ 1.42 µM) | 1 (≈ 1.42 µM) | 4 (≈ 5.69 µM) | 1 (≈ 1.42 µM) | 1 (≈ 1.42 µM) | 4 | 2.8 (≈ 3.98 µM) | 2 to 8 (≈ 2.85 to 11.4 µM) | 10.2 (≈ 14.5 µM) | 4 to 32 (≈ 5.69 to 45.5 µM) |
